Results: patent US20250361261A1, “CYCLOPENTYL ADENOSINE DERIVATIVE AND PHARMACEUTICAL USE THEREOF” (priority 2022, published 2025)

Test system: CFA inflammatory pain model
Test: CFA inflammatory pain model, mechanical pain threshold by VonFrey electronic aesthesiometer
Assay type: in vivo, Sprague-Dawley (SD) rats
Text: Experimental animals: SPF male Sprague-Dawley (SD) rats, weighing 180±30 g, obtained from Shanghai Sippe-Bk Lab Animal Co., Ltd. Experimental samples: Compounds 1, 2, and 3 and CCPA were used to prepare the corresponding pharmaceutical compositions according to the following formulation amounts and method. [table] Preparation method: Formulation amounts of compounds 1, 2, and 3 and CCPA were separately weighed out, added to a proper amount of tert-butanol/water mixed solution, and dissolved by stirring. Then formulation amounts of dimyristoylphosphatidylcholine (DMPC) and cholesterol were added and dissolved by stirring. The above solutions were made up to volume (25-40 mL), added to vials, and lyophilized in a lyophilizer for later use. When used, the lyophilizates were dissolved in normal saline to 1 mg/mL, 2 mg/mL, 4 mg/mL, and 8 mg/mL. SD rats, 6 to 8-week-old and weighing 150 g-200 g, were divided into a control group, a model control group, and an administration group. A CFA inflammatory pain model was obtained 24 h after 100 μL of complete Freund's adjuvant was injected into the soles of the left feet of the rats in the model control group and the administration group. The injection was performed at left Zusanli, and the injection volume was 100 μL. [table] Note: For the control group, 100 μL of normal saline was injected into the soles of the feet. For the model control group, 100 μL of normal saline was injected into Zusanli after the model was successfully established. A VonFrey electronic aesthesiometer was used to measure the pain threshold, and mechanical pain was used as an evaluation index. Observations of the basal pain threshold were started 1 day before the model was established and ended 14 days after the model was established. Pain thresholds before and after administration for different groups of animals were plotted using Graph Pad Prism 8.3.0 software. Based on the dose-response curve 48 h after administration, the EC50 and EC90 were obtained through fitting.

EC50 change compared to CCPA (compared to CCPA): 4 fold | EC90 change compared to CCPA (compared to CCPA): 6 fold | EC50 change compared to compound 2 (compared to compound 2): ~3 fold | EC90 change compared to compound 2 (compared to compound 2): ~3 fold
Structure (SMILES): CCCCCCCCCCCCCCC(=O)OC[C@H]1O[C@@H](n2cnc3c(NC4CCCC4)nc(Cl)nc32)[C@H](O)[C@@H]1O [Compound 1, ((2R,3S,4R,5R)-5-(2-Chloro-6-(cyclopentylamino)-9H-purin-9-yl)-3,4-dihydroxytetrahydrofuran-2-yl)methyl pentadecanoate]
